Laboratory results reported in patent publication US6355799B1, “Substituted benzene compounds, process for their preparation, and herbicidal and defoliant compositions containing them” (ISK Americas Incorporated, priority 1997, dated 2002).

Tests used:
Type in all cases: in vivo
[1] = test system: ivyleaf morningglory (Ipomoea hederacea, IPOHE); assay: Pre-emerge test, greenhouse herbicide activity screening; conditions: phytotoxicity rating 0-100, 14 days after application
Excerpt: (§1) A standard greenhouse herbicide activity screening system was used to evaluate the herbicidal efficacy and crop safety of these test compounds. Seven broadleaf weed species including redroot pigweed (Amaranthus retroflexus, AMARE, velvetleaf (Abutilon theophrasti, ABUTH), sicklepod (Cassia obtusifolia, CASOB), ivyleaf morningglory (Ipomoea hederacea, IPOHE), lambsquarters (Chenopodium album, CHEAL), common ragweed (Ambrosia artemisizfolia L., AMBEL), and cocklebur (Xanthium strumarium, XANST) were used as test species. Four grass weed species including green foxtail (Setaria viridis, SETVI), barnyardgrass (Echinochloa crus-galli, ECHCG), johnsongrass (Sorghum halepense, SORHA), and large crabgrass (Digitaria sanguinalis, DIGSA) were also used. In addition, three crop species, field corn (Zea mays L., var. Dekalb 535, CORN), soybean (Glycine max L., var. Pella 86, SOY), and is upland rice (Oryza sp., var. Tebonnet, RICE) were included.
(§2) All plants were grown in 10 cm square plastic pots which were filled with a sandy loam soil mix. For pre-emerge tests, seeds were planted one day prior to application of the test compounds. For post-emerge tests, seeds were planted 8-21 days prior to the test to allow emergence and good foliage development prior to application of the test substances. At the time of the post-emerge application, plants of all species were usually at the 2-3 leaf stage of development.
(§3) All test compounds Were dissolved in acetone and applied to the test units in a volume of 187 l /ha. Test materials were applied at rates ranging from 15 g ai/ha to 1000 g ai/ha using a track sprayer equipped with a TJ8001E even flow flat fan spray nozzle. Plants were arranged on a shelf so that the top of the canopy (post-emerge) or top of the soil surface (pre-emerge) was 40-45 cm below the nozzle. Pressurized air was used to force the test solution through the nozzle as it was mechanically advanced (via electrically driven chain drive) over the top of all test plants/pots. This application simulates a typical commercial field herbicide application.
(§4) In the post-emerge test, a commercial non-ionic surfactant was also included (0.25% v/v) to enhance wetting of the leaf surfaces of target plants. Immediately after application, test units of the pre-emerge applications were watered at the soil surface to incorporate the test materials. Subsequently, these test units were bottom-watered. Post-emerge test units were always bottom-watered.
(§5) At 14 days after application of the test materials, phytotoxicity ratings were recorded. A rating scale of 0-100 was used as previously described in Research Methods in Weed Science, 2nd edition, B. Truelove, Ed., Southern Weed Science Society, Auburn University, Auburn, Ala. 1977. Briefly, “0” corresponds to no damage and “100” corresponds to complete death of all plants in the test unit. This scale was used both to determine efficacy against weed species and damage to crop species. Herbicide activity data for various compounds of this invention, which are shown by compound No. in Tables 1-8, are shown in Tables 11 and 12.

[2] = test system: velvetleaf (Abutilon theophrasti, ABUTH); assay: as above; conditions: phytotoxicity rating 0-100, 14 days after application
Excerpt: as §1, §2, §3, §4, §5

[3] = test system: large crabgrass (Digitaria sanguinalis, DIGSA); assay: as above; conditions: phytotoxicity rating 0-100, 14 days after application
Excerpt: as §1, §2, §3, §4, §5

[4] = test system: sicklepod (Cassia obtusifolia, CASOB); assay: as above; conditions: phytotoxicity rating 0-100, 14 days after application
Excerpt: as §1, §2, §3, §4, §5

[5] = test system: barnyardgrass (Echinochloa crus-galli, ECHCG); assay: as above; conditions: phytotoxicity rating 0-100, 14 days after application
Excerpt: as §1, §2, §3, §4, §5

[6] = test system: green foxtail (Setaria viridis, SETVI); assay: as above; conditions: phytotoxicity rating 0-100, 14 days after application
Excerpt: as §1, §2, §3, §4, §5

[7] = test system: lambsquarters (Chenopodium album, CHEAL); assay: as above; conditions: phytotoxicity rating 0-100, 14 days after application
Excerpt: as §1, §2, §3, §4, §5

[8] = test system: field corn (Zea mays L., var. Dekalb 535, CORN); assay: Pre-emerge test, crop safety; conditions: crop damage rating 0-100, 14 days after application
In short: (§6)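 Compounds in acetone were track-sprayed at 15-1000 g ai/ha (187 l/ha) on sandy loam pots: pre-emerge one day after seeding, post-emerge at 2-3 leaf stage with 0.25% v/v non-ionic surfactant. Phytotoxicity was rated 14 days later on a 0 (no damage) to 100 (complete death) scale.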

[9] = test system: upland rice (Oryza sp., var. Tebonnet, RICE); assay: Pre-emerge test, crop safety; conditions: crop damage rating 0-100, 14 days after application
In short: as §6

[10] = test system: redroot pigweed (Amaranthus retroflexus, AMARE); assay: Pre-emerge test, greenhouse herbicide activity screening; conditions: phytotoxicity rating 0-100, 14 days after application
In short: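 Compounds in acetone were track-sprayed at 187 l/ha, 15–1000 g ai/ha, onto sandy loam pots. Pre-emerge seeds were sown one day before spraying, with surface watering afterwards. Post-emerge plants were at the 2–3 leaf stage and sprayed with 0.25% v/v non-ionic surfactant. Injury was rated 0–100 at 14 days.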

[11] = test system: field corn (Zea mays L., var. Dekalb 535, CORN); assay: Post-emerge test, crop safety; conditions: post-emerge, 14 days after application, rating scale 0-100
In short: (§7)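 Sandy loam pots; pre-emerge: sown 1 d pre-spray, surface-watered after, then bottom-watered. Post-emerge: sown 8–21 d before, 2–3 leaf stage, + 0.25% v/v NIS, bottom-watered. Acetone, 187 l/ha track spray, 15–1000 g ai/ha. 0–100 injury score, day 14.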

[12] = test system: upland rice (Oryza sp., var. Tebonnet, RICE); assay: Post-emerge test, crop safety; conditions: post-emerge, 14 days after application, rating scale 0-100
In short: as §7

[13] = test system: ivyleaf morningglory (Ipomoea hederacea, IPOHE); assay: Post-emerge test, greenhouse herbicide activity screening; conditions: post-emerge, 14 days after application, rating scale 0-100
Excerpt: as §1, §2, §3, §4, §5

[14] = test system: velvetleaf (Abutilon theophrasti, ABUTH); assay: as above; conditions: post-emerge, 14 days after application, rating scale 0-100
Excerpt: as §1, §2, §3, §4, §5

[15] = test system: large crabgrass (Digitaria sanguinalis, DIGSA); assay: as above; conditions: post-emerge, 14 days after application, rating scale 0-100
Excerpt: as §1, §2, §3, §4, §5

[16] = test system: sicklepod (Cassia obtusifolia, CASOB); assay: as above; conditions: post-emerge, 14 days after application, rating scale 0-100
Excerpt: as §1, §2, §3, §4, §5

[17] = test system: redroot pigweed (Amaranthus retroflexus, AMARE); assay: as above; conditions: post-emerge, 14 days after application
Excerpt: as §1, §2, §3, §4, §5

[18] = test system: barnyardgrass (Echinochloa crus-galli, ECHCG); assay: as above; conditions: post-emerge, 14 days after application, rating scale 0-100
Excerpt: as §1, §2, §3, §4, §5

[19] = test system: green foxtail (Setaria viridis, SETVI); assay: as above; conditions: post-emerge, 14 days after application, rating scale 0-100
Excerpt: as §1, §2, §3, §4, §5

[20] = test system: lambsquarters (Chenopodium album, CHEAL); assay: as above; conditions: post-emerge, 14 days after application, rating scale 0-100
Excerpt: as §1, §2, §3, §4, §5

With `COc1ccc(COC(=O)Nc2c(OC)c(Cl)cc(F)c2-n2c(=O)cc(C(F)(F)F)n(C)c2=O)cc1` [4-40] the “Pre-emerge Herbicidal Activity IPOHE” value ([1]; 63 g ai/ha) was 30, the “Pre-emerge Herbicidal Activity IPOHE” value ([1]; 250 g ai/ha) was 90 and the “Pre-emerge Herbicidal Activity ABUTH” value ([2]; 63 g ai/ha) was 100. For the same molecule, the “Pre-emerge Herbicidal Activity ABUTH” value ([2]; 250 g ai/ha) was 100, the “Pre-emerge Herbicidal Activity DIGSA” value ([3]; 63 g ai/ha) was 100 and the “Pre-emerge Herbicidal Activity DIGSA” value ([3]; 250 g ai/ha) was 100. For the same molecule, the “Pre-emerge Herbicidal Activity CASOB” value ([4]; 63 g ai/ha) was 60, the “Pre-emerge Herbicidal Activity CASOB” value ([4]; 250 g ai/ha) was 90 and the “Pre-emerge Herbicidal Activity ECHCG” value ([5]; 63 g ai/ha) was 60. The “Pre-emerge Herbicidal Activity ECHCG” value ([5]; 250 g ai/ha) was 85, the “Pre-emerge Herbicidal Activity SETVI” value ([6]; 63 g ai/ha) was 100 and the “Pre-emerge Herbicidal Activity SETVI” value ([6]; 250 g ai/ha) was 100. For the same molecule, the “Pre-emerge Herbicidal Activity CHEAL” value ([7]; 63 g ai/ha) was 100, the “Pre-emerge Herbicidal Activity CHEAL” value ([7]; 250 g ai/ha) was 100 and the “Pre-emerge Herbicidal Activity CORN” value ([8]; 63 g ai/ha) was 0. For the same molecule, the “Pre-emerge Herbicidal Activity CORN” value ([8]; 250 g ai/ha) was 75, the “Pre-emerge Herbicidal Activity RICE” value ([9]; 63 g ai/ha) was 30 and the “Pre-emerge Herbicidal Activity RICE” value ([9]; 250 g ai/ha) was 70. For the same molecule, the “Pre-emerge Herbicidal Activity AMARE” value ([10]; 63 g ai/ha) was 100, the “Pre-emerge Herbicidal Activity AMARE” value ([10]; 250 g ai/ha) was 100 and the “phytotoxicity rating CORN (crop damage)” value ([11]; 63 g ai/ha) was 30. The “phytotoxicity rating CORN (crop damage)” value ([11]; 250 g ai/ha) was 70, the “phytotoxicity rating RICE (crop damage)” value ([12]; 63 g ai/ha) was 40 and the “phytotoxicity rating RICE (crop damage)” value ([12]; 250 g ai/ha) was 60. The “phytotoxicity rating IPOHE” value ([13]; 63 g ai/ha) was 100, the “phytotoxicity rating IPOHE” value ([13]; 250 g ai/ha) was 100 and the “phytotoxicity rating ABUTH” value ([14]; 63 g ai/ha) was 100. For the same molecule, the “phytotoxicity rating ABUTH” value ([14]; 250 g ai/ha) was 100, the “phytotoxicity rating DIGSA” value ([15]; 63 g ai/ha) was 40 and the “phytotoxicity rating DIGSA” value ([15]; 250 g ai/ha) was 90. For the same molecule, the “phytotoxicity rating CASOB” value ([16]; 63 g ai/ha) was 100, the “phytotoxicity rating CASOB” value ([16]; 250 g ai/ha) was 100 and the “phytotoxicity rating AMARE” value ([17]; 63 g ai/ha, rating scale 0-100 (0 no damage, 100 complete death)) was 100. The “phytotoxicity rating AMARE” value ([17]; 250 g ai/ha, rating scale 0-100) was 100, the “phytotoxicity rating ECHCG” value ([18]; 63 g ai/ha) was 50 and the “phytotoxicity rating ECHCG” value ([18]; 250 g ai/ha) was 90. The “phytotoxicity rating SETVI” value ([19]; 63 g ai/ha) was 80, the “phytotoxicity rating SETVI” value ([19]; 250 g ai/ha) was 90 and the “phytotoxicity rating CHEAL” value ([20]; 63 g ai/ha) was 100. The “phytotoxicity rating CHEAL” value ([20]; 250 g ai/ha) was 100.
